1 compound from ChEMBL document CHEMBL5120746, “Novel 5-fluorouracil sensitizers for colorectal cancer therapy: Design and synthesis of S1P receptor 2 (S1PR2) antagonists” (Eur J Med Chem, 2022) can be followed below.

For data set [1], the system named is SW620/5-FU. As to the kind of experiment: Downregulation of DPD expression in human SW620/5-FU cells at 10 uM by Western blot analysis. It is filed as functional, cell-based. The settings on record: time 4-48 hrs, TDE = time-dependent effect. On the technique in general: Immunoblotting shows a protein as a band on a membrane.
The target in data set [2] is Sphingosine 1-phosphate receptor 2 (Homo sapiens, UniProt O95136). As to the kind of experiment: Antagonist activity at S1PR2 in human SW620/5-FU cells assessed as reduction of DPD-catalyzed 5-FU degradation by measuring intracellular 5-FU level at 20 uM measured after 24 hrs by HPLC-UV analysis. It is filed as functional, cell-based. The settings on record: filed as antagonist.

Data set [3] in a line: Half life in Sprague-Dawley rat blood at 1 mg/kg, iv measured up to 24 hrs by HPLC-MS/MS analysis. In kind it is ADME, organism-based.
Data set [4] in a line: AUC (0 to infinity) in Sprague-Dawley rat blood at 1 mg/kg, iv measured up to 24 hrs by HPLC-MS/MS analysis. In kind it is ADME, organism-based. Set-up: dose 1 mg/kg, time < 24 hrs, route iv.
Data set [5] is described as follows: MRT (0 to infinity) in Sprague-Dawley rat blood at 1 mg/kg, iv measured up to 24 hrs by HPLC-MS/MS analysis. It is filed as ADME, organism-based.
Data set [6] can be described thus: AUC (0 to t) in Sprague-Dawley rat plasma at 1 mg/kg, iv measured up to 24 hrs by HPLC-MS/MS analysis. In kind it is ADME, organism-based. Also noted: dose 1 mg/kg, time < 24 hrs, route iv.
A short description of data set [7]: Toxicity in SPF nude mouse xenografted with DPD expressed human HCT-116 cells assessed as change in body weight at 15 mg/kg, iv QD for 20 days and measured every 4 days. In kind it is organism-based. The settings on record: in vivo, 480 h, time 20 day. On the technique in general: In xenograft studies the graft and the host belong to different species.
Data set [8] can be described thus: Toxicity in SPF nude mouse xenografted with human SW620/5-FU cells assessed as change in body weight at 7.5 mg/kg, iv QD for 21 days and measured every 4 days in presence of 5-fluorouracil. In kind it is organism-based. The settings on record: in vivo, 504 h, time 21 day.
For data set [9], the system named is HCT-116. In words: Antitumor activity against DPD expressed human HCT-116 cells xenografted in SPF nude mouse assessed as tumor growth inhibition at 15 mg/kg, iv QD for 20 days and measured every 4 days in presence of 5-fluorouracil. The settings on record: HCT-116, 480 h, time 20 day, read-out: TGI. It is filed as functional.
Data set [10] relates to SW620/5-FU. As to the kind of experiment: Antitumor activity against human SW620/5-FU cells xenografted in SPF nude mouse assessed as tumor growth inhibition at 7.5 mg/kg, iv QD for 21 days and measured every 4 days. In kind it is functional. The settings on record: 504 h, time 21 day, read-out: TGI.

Chain of Sphingosine 1-phosphate receptor 2 (O95136 whole entry): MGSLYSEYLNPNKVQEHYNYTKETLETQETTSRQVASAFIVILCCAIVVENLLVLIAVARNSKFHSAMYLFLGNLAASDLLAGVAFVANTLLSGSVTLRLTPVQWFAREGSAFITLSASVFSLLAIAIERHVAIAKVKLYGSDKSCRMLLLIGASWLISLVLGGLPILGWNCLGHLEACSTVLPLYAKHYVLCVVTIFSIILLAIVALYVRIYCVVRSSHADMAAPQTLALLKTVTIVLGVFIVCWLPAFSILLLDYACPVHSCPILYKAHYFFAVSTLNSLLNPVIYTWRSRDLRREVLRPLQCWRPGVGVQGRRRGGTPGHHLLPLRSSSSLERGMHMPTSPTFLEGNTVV

Consider `Cn1ncc2c(-c3ccc(F)cc3)cc(NNC(=O)Nc3cc(Cl)nc(Cl)c3)nc21`, for which the Activity entry in data set [1] was “Tde”; in data set [2] it was 7.8 µM; in data set [7], “Non-Toxic”; in data set [8], “Non-Toxic”. Moreover, the half-life (as a rule, the time in which the quantity being followed falls by half) in data set [3] was 6 h. In data set [4], the AUC(0-inf) (usually total exposure, with the tail of the curve extrapolated) was found to be 11200 ng·h/mL. In [5], the MRT inf (as a rule, the average time that molecules of a dose stay in the body) was determined as 8.5 h. Moreover, in data set [6], the AUC(0-t) – broadly, the area under the concentration-time curve up to a stated or last time point – at 24 h was 10100 ng·h/mL. Also, the inhibition in vivo at 15 mg/kg in data set [9] is 70.1%. In data set [10], the inhibition in vivo at 7.5 mg/kg stood at 14.7%.
